In patent publication US20250082786A1, “FLUORESCENT MARKERS FOR NEUROFIBRILLAR TANGLES AND USES THEREOF” (FONDAZIONE ISTITUTO ITALIANO DI TECNOLOGIA, priority 2021, published 2025):

Legend:
[1] = system: intracellular TAU aggregates in human iPSC-derived retinal ganglion cells; assay: Probe staining of hiPSC-derived retinal ganglion cells, colocalization with anti-T22 and anti-AT8 antibodies; assay type: cell-based; details: 100 μM probe, 30 minutes at 37° C., retinal ganglion cells at 30 days in vitro
Experimental: FIG. 4. (A) Representative binarized fluorescence image showing human iPSC-derived retinal ganglion cells at 30 days in vitro after incubation with BT1 (100 μM) for 30 minutes at 37° C. and staining with anti-T22 and anti-AT8 antibodies. • (B) Representative binarized fluorescence image showing human iPSC-derived retinal ganglion cells at 30 days in vitro after incubation with TAU1 (100 μM) for 30 minutes at 37° C. and staining with anti-T22 and anti-AT8 antibodies. • (C) Fluorescence composite of the above representative images. The fluorescent image of BT1 was obtained using excitation at 520 nm with a 555/15 nm filter in detection; TAU1 was obtained using excitation at 470 nm with a 510/5 nm filter in detection. […] Cell nuclei were stained with DAPI. • (D) The probe specificity is calculated as the ratio between the antibody intensity within the area covered by BT1 or TAU1 out of the total antibody intensity (n=3), as determined using Image J. Images were acquired at the FV10i confocal microscope using a 60× magnification.
The differentiation protocol was a revisited version of Sluch V. et al, 2017 with minor modifications. Human iPSCs were dissociated to single cells with 1× Accutase (Merck Life science) and plated on growth factor-reduced Matrigel coated plates at a density of 1000 cells/mm2 in mTeSR Plus supplemented with 10 μM Rock-inhibitor Y-27632 (Peprotech). […]

[2] = system: intracellular TAU aggregates in human iPSC-derived cortical neurons; assay: Probe staining of hiPSC-derived cortical neurons, colocalization with anti-T22 and anti-AT8 antibodies; assay type: cell-based; details: 100 μM probe, 30 minutes at 37° C., cortical neurons at 30 days in vitro
Experimental: FIG. 3. (A) Representative binarized fluorescence image showing human iPSC-derived cortical neurons at 30 days in vitro after incubation with BT1 (100 μM) for 30 minutes at 37° C. and staining with anti-T22 and anti-AT8 antibodies. • (B) Representative binarized fluorescence image showing human iPSC-derived cortical neurons at 30 days in vitro after incubation with TAU1 (100 μM) for 30 minutes at 37° C. and staining with anti-T22 and anti-AT8 antibodies. • (C) Fluorescence composite of the above representative images. […] (D) The probe specificity is calculated as the ratio between the antibody intensity within the area covered by BT1 or TAU1 out of the total antibody intensity (n=3), as determined using Image J. Images were acquired at the FV10i confocal microscope using a […] magnification. […]
Fixed hiPSC-derived cortical neurons and RGCs were permeabilized with 0.2% Triton X-100 (Merck Life Science) in 1×TBS and incubated for 1 hour in blocking solution containing 1×TBS, 0.2% Triton X-100, and 5% goat serum (Merck Life Science). […] Fluorescence intensity per field of view was determined using the Software Image J.
The ability of the BT1 probe to stain specifically intracellular TAU aggregates was determined as a function of the antibody fluorescent signal detected within the binarized probe signal.

SMILES: CC1=CC(/C=C/c2ccc(/C=C/c3ccc(N(C)C)cc3)cc2)=[N+]2C1=Cc1cccn1[B-]2(F)F [BT1, 3-((E)-4-((E)-4-(dimethylamino)styryl)styryl)-5,5-difluoro-1-methyl-5H-dipyrrolo[1,2-c:2′,1′-f][1,3,2]diazaborinin-4-ium-5-uide]
- Ability to detect phosphorylated (AT8-positive) aggregates [1]: higher ability to detect phosphorylated aggregates when compared to the TAU1 probe
- Colocalization of probe signal with AT8 versus T22 antibody signal [1]: higher colocalization with AT8 signal in respect to T22
- Ability to detect phosphorylated (AT8-positive) aggregates [2]: higher ability to detect phosphorylated aggregates when compared to the TAU1 probe
- Colocalization of probe signal with AT8 versus T22 antibody signal [2]: higher colocalization with AT8 signal in respect to T22
